Data taken from patent publication US20110313156A1 (BOEHRINGER INGELHEIM INTERNATIONAL GMBH, priority 2008, published 2011).
Where two headings read alike, the source gives them in different places.

Biological target: T1, ΔPH-PDK1 (aa 51-359; Q66A mutation) (Homo sapiens, UniProt O15530, Q66A)
T1 construct: a shortened PDK1 enzyme (aa 51-359; Q66A mutation) is used; His6 (N, cleaved yes)
T1 sequence (O15530 51-359 Q66A): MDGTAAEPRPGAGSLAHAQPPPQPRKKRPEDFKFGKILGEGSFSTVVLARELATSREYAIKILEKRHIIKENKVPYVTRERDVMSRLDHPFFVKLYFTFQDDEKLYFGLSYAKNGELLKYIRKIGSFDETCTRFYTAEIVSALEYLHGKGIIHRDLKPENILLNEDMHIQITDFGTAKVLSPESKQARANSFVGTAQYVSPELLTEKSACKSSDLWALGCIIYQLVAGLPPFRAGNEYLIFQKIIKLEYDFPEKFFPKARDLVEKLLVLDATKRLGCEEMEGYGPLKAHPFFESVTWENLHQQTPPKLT
Experiment: PDK1 kinase assay II (shortened enzyme)
Type: biochemical
Conditions: compound at 10 μM, read-out: % CTL (residual activity of the enzyme relative to DMSO control)
Method: Another assay was developed in which a shortened PDK1 enzyme (aa 51-359; Q66A mutation) is used that carries in the N-terminal position a His6 tag that is cleaved during purification. (ΔPH-PDK1).
The following components are combined in a well of a 96-well round-based dish (Messrs. Greiner bio-one, No. 650101): • 15 μL of compound to be tested in varying concentrations (e.g. Starting at 10 μM, and diluted in steps of 1:5) in 3.33% DMSO (final concentration 1% DMSO)/assay buffer (50 mM Tris pH 7.5, 0.05% β-mercaptoethanol, 10 mM Mg-acetate) • 15 μL (ΔPH-PDK1; 12 ng/well) and PDKtide ([…]-QEMFRDFDYIADWC) synthesised by Pepceuticals Limited, Nottingham, United Kingdom; 25 μM final concentration); (ΔPH-PDK1 and PDKtide are together diluted accordingly in assay buffer; PDKtide is present in this mixture as an 83.3 μM solution. These 30 […] are incubated for 24 h at RT before ATP solution is added. • 20 μL ATP solution (25 μM ATP with 1.0 μCi/well gamma-P33-ATP)
The reaction is started by adding the ATP solution and the mixture is incubated for 120 min at ambient temperature; at the start of the reaction the dishes are shaken gently. The reaction is stopped by the addition of 50 μL/well of 500 mM phosphoric acid (H3PO4) and incubated for about 20 min at ambient temperature. The precipitate is transferred by harvesting onto filter plates (96-well microtitre filter plate: UniFilter GF/C; Messrs Perkin Elmer; No. 6005174), then washed 6 times with 50 mM H3PO4 and dried at 60° C. Then the plate is stuck down with sealing tape, 25 μL/well of scintillation solution (Microscint 0; Messrs. Perkin Elmer; No. 6013611) are added and the amount of P33 precipitated is measured using the Wallac Betacounter. The measured data are evaluated using Graphpad Prism software.
The % CTL values indicate the residual activity of the enzyme after the addition of the inhibitory compound in the solvent DMSO in relation to the enzyme activity in the solvent DMSO without the addition of a compound (control). The majority of the values were determined using the PDK1 kinase assay III described hereinbefore. The values marked with an asterisk (* or**) were determined using the PDK1 kinase assay II described hereinbefore (one asterisk→incubation for 24 h; two asterisks→incubation for 5 min)

[1] = one asterisk: incubation for 24 h

Row | Compound | remaining activity at 10 µM [1] | remaining activity at 10 µM (two asterisks: incubation for 5 min)
1 | Cc1c(C(=O)NC/C=C/c2cc(OC3CCNCC3)c3nc(Nc4ccc(N5CCOCC5)cc4)ncc3c2)c(=O)n(Cc2ccc(F)c(F)c2)n1C | 8.9% | –
2 | Cc1c(C(=O)NCC#Cc2ccc3nc(Nc4ccc(C(=O)NCCO)cc4)ncc3c2)c(=O)n(Cc2ccc(F)c(F)c2)n1C | 12.1% | –
3 | Cc1ncc(C(=O)NC/C=C/c2ccc3nc(Nc4ccc(N(C)C5CCN(C)CC5)cc4)ncc3c2)c(=O)n1Cc1ccc(F)c(F)c1 | 5.8% | –
4 | CN(C)Cc1c[nH]c(/C=C2\C(=O)Nc3cc(/C=C/CNC(=O)c4cncn(Cc5ccc(F)c(F)c5)c4=O)ccc32)c1 [I-15, 1-(3,4-difluorobenzyl)-N-{(2E)-3-[(3Z)-3-({4-[(dimethylamino)methyl]-1H-pyrrol-2-yl}methylidene)-2-oxo-2,3-dihydro-1H-indol-6-yl]prop-2-en-1-yl}-6-oxo-1,6-dihydropyrimidine-5-carboxamide] | 15.7% | –
5 | Cc1nc[nH]c1/C=C1\C(=O)Nc2cc(/C=C/CNC(=O)c3c(C)n(C)n(Cc4ccc(F)c(F)c4)c3=O)ccc21 [I-18, 2-(3,4-difluorobenzyl)-1,5-dimethyl-N-[(2E)-3-{(3Z)-3-[(4-methyl-1H-imidazol-5-yl)methylidene]-2-oxo-2,3-dihydro-1H-indol-6-yl}prop-2-en-1-yl]-3-oxo-2,3-dihydro-1H-pyrazole-4-carboxamide] | 6.6% | –
6 | C/C(=C\c1ccc2c(c1)NC(=O)/C2=C\c1cnc[nH]1)CNC(=O)c1cncn(Cc2ccc(F)c(F)c2)c1=O [I-45, 1-(3,4-difluorobenzyl)-N-{(2E)-3-[(3Z)-3-(1H-imidazol-5-ylmethylidene)-2-oxo-2,3-dihydro-1H-indol-6-yl]-2-methylprop-2-en-1-yl}-6-oxo-1,6-dihydropyrimidine-5-carboxamide] | 7.9% | –
7 | CN(C)Cc1ccc(Nc2ncc3cc(C#CCNC(=O)c4cn(C)c(=O)n(Cc5ccc(F)c(F)c5)c4=O)ccc3n2)cc1 [III-21, 3-(3,4-difluorobenzyl)-N-{3-[2-({4-[(dimethylamino)methyl]phenyl}amino)-quinazolin-6-yl]prop-2-yn-1-yl}-1-methyl-2,4-dioxo-1,2,3,4-tetrahydropyrimidine-5-carboxamide] | – | 33%
8 | Cc1c(C(=O)NCC#Cc2cc3cnc(Nc4ccccc4)nc3n(C)c2=O)c(=O)n(Cc2ccc(F)c(F)c2)n1C [III-23, 2-(3,4-difluorobenzyl)-1,5-dimethyl-N-{3-[8-methyl-7-oxo-2-(phenylamino)-7,8-dihydropyrido[2,3-d]pyrimidin-6-yl]prop-2-yn-1-yl}-3-oxo-2,3-dihydro-1H-pyrazole-4-carboxamide] | 9.1% | –
9 | Cc1c(C#CCNC(=O)c2c(C)n(C)n(Cc3ccc(F)c(F)c3)c2=O)c(=O)n(C(C)C)c2nc(Nc3ccc(N4CCOCC4)cc3)ncc12 [III-28, 2-(3,4-difluorobenzyl)-1,5-dimethyl-N-{3-[5-methyl-2-{[4-(morpholin-4-yl)phenyl]amino}-7-oxo-8-(propane-2-yl)-7,8-dihydropyrido[2,3-d]pyrimidin-6-yl]prop-2-yn-1-yl}-3-oxo-2,3-dihydro-1H-pyrazole-4-carboxamide] | 13.8% | –
10 | CN1CCC(Nc2ccc(Nc3ncc4cc(C#CCNC(=O)c5cncn(Cc6ccc(F)c(F)c6)c5=O)ccc4n3)cc2F)CC1 [III-31, 1-(3,4-difluorobenzyl)-N-{3-[2-({3-fluoro-4-[(1-methylpiperidin-4-yl)amino]-phenyl}amino)quinazolin-6-yl]prop-2-yn-1-yl}-6-oxo-1,6-dihydropyrimidine-5-carboxamide] | 6.5% | –
11 | CN1CCN(c2ccc(Nc3ncc4cc(/C=C/CNC(=O)c5cncn(Cc6ccc(F)c(F)c6)c5=O)ccc4n3)cc2)CC1 [IV-4, 1-(3,4-difluorobenzyl)-N-[(2E)-3-(2-{[4-(4-methylpiperazin-1-yl)phenyl]-amino}quinazolin-6-yl)prop-2-en-1-yl]-6-oxo-1,6-dihydropyrimidine-5-carboxamide] | 67.3% | –
12 | C/C(=C\c1ccc2nc(Nc3ccc(CN(C)C)cc3)ncc2c1)CNC(=O)c1cncn(Cc2ccc(F)c(F)c2)c1=O [IV-28, 1-(3,4-difluorobenzyl)-N-{(2E)-3-[2-({4-[(dimethylamino)methyl]phenyl}amino)-quinazolin-6-yl]-2-methylprop-2-en-1-yl}-6-oxo-1,6-dihydropyrimidine-5-carboxamide] | 27.9% | –
13 | CN1CCC(N(C)c2ccc(Nc3ncc4cc(/C=C/CNC(=O)c5cc(Cl)nn(Cc6ccc(F)c(F)c6)c5=O)ccc4n3)cc2)CC1 [IV-40, 6-chloro-2-(3,4-difluorobenzyl)-N-{3-[2-({4-[methyl(1-methylpiperidin-4-yl)amino]phenyl}amino)quinazolin-6-yl]prop-2-en-1-yl}-3-oxo-2,3-dihydropyridazine-4-carboxamide] | 25.4% | –
14 | CC(=O)Nc1ccc(Nc2ncc3cc(/C=C/CNC(=O)c4cncn(Cc5ccc(F)c(F)c5)c4=O)ccc3n2)cc1 [IV-47, N-[(2E)-3-(2-{[4-(acetylamino)phenyl]amino}quinazolin-6-yl)prop-2-en-1-yl]-1-(3,4-difluorobenzyl)-6-oxo-1,6-dihydropyrimidine-5-carboxamide] | 16.6% | –
